Active and inactive are the calls of the source.
Assays:
Prothrombin = Prothrombin (Homo sapiens, UniProt P00734); assay: Thrombin 1536 HTS Dose Response Confirmation. [Related pubchem assays: 1046 (Thrombin 1536 HTS; hits were confirmed in this assay)]; format: functional
Leucine aminopeptidase = molecular target: T1, Leucine aminopeptidase (Plasmodium falciparum 3D7, UniProt Q8IL11); assay: P. falciparum M17LAP inhibitors, primary screen, biochemical, fluorogenic H-Leu-NHMec substrate, 1536-well (AID 1619); format: functional
T1 sequence (Q8IL11 whole entry): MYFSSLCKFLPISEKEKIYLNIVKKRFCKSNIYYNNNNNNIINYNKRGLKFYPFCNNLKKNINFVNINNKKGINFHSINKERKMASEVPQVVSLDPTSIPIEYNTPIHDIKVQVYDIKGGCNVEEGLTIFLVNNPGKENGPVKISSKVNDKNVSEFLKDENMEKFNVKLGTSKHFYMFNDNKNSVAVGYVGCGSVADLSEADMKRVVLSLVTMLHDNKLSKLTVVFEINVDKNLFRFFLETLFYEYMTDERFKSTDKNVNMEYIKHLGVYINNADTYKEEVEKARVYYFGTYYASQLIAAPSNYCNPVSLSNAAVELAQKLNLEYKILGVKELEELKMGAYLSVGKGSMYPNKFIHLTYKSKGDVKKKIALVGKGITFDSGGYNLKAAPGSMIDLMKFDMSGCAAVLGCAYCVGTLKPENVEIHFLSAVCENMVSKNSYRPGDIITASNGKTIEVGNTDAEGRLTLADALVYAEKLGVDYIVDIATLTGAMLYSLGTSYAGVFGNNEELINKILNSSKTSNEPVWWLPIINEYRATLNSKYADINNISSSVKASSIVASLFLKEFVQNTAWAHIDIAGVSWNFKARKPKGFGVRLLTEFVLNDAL

Aspartyl aminopeptidase = molecular target: T2, Aspartyl aminopeptidase (Plasmodium falciparum 3D7, UniProt Q8I2J3); assay: Counterscreen for inhibitors of M1 and M17 aminopeptidases: QFRET-based biochemical high throughput dose response assay for inhibitors of the Plasmodium falciparum M18 Aspartyl Aminopeptidase (PFM18AAP). [Related PubChem assays: 1619 (Screening assay (M17LAP inhibitors).), 1445 (Screening assay (M1AAP inhibitors).)]
T2 sequence (Q8I2J3 whole entry): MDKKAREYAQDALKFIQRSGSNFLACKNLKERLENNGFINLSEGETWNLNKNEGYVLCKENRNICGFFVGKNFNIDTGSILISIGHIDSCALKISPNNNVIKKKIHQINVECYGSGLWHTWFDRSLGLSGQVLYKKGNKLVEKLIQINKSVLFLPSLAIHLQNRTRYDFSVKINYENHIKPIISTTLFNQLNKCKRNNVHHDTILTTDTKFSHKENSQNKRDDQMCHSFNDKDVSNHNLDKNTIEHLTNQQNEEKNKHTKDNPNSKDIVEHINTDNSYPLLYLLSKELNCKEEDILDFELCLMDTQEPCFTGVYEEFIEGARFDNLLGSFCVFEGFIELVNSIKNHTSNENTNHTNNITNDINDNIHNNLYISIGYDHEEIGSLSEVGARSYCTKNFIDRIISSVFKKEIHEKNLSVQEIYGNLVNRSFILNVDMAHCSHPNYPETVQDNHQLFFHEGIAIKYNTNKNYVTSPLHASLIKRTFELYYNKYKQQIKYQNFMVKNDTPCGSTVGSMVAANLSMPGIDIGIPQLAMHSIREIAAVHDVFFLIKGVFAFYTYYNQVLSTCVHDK

Procathepsin L = Procathepsin L (Homo sapiens, UniProt P07711); assay: cathepsin L inhibitors, dose response, counter-screen for M1/M17 aminopeptidase inhibitor project, biochemical, QFRET, 1536-well (AID 2214)
Chain of Procathepsin L (P07711 whole entry): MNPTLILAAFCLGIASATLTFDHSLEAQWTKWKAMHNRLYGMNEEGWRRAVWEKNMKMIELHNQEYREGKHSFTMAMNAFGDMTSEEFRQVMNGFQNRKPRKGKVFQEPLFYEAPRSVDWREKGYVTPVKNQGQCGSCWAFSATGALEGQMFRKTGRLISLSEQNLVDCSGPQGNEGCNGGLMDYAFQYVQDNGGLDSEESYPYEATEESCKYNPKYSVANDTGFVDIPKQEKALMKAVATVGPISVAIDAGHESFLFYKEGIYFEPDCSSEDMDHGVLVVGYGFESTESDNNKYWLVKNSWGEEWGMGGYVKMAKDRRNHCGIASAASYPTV

BJ [1] = assay: cytotoxicity toward BJ-TERT fibroblasts, dose response, cell-based, RAS-independent, luminescence (AID 1933); format: functional; settings: Homo sapiens
BJ [2] = assay: cells; format: functional, cell-based; settings: Homo sapiens
BJ [3] = assay: cytotoxicity toward BJ-TERT-LT-ST fibroblasts, dose response, cell-based, RAS-independent, luminescence (AID 1935); format: functional; settings: Homo sapiens;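 note: BJ fibroblasts immortalized with TERT plus LT and ST oncogenes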
[4] = cytotoxicity toward DRD oncogenic fibroblasts, dose response, cell-based, non-viral oncogenic, luminescence (AID 1934); format: functional; settings: Homo sapiens
[5] = molecular target: Luciferin 4-monooxygenase (Photinus pyralis, UniProt P08659); assay: Counter Screen for Luciferase-based Assay Positives. [Related pubchem assays: 620, 618, 411 ]
Chain of Luciferin 4-monooxygenase (P08659 whole entry): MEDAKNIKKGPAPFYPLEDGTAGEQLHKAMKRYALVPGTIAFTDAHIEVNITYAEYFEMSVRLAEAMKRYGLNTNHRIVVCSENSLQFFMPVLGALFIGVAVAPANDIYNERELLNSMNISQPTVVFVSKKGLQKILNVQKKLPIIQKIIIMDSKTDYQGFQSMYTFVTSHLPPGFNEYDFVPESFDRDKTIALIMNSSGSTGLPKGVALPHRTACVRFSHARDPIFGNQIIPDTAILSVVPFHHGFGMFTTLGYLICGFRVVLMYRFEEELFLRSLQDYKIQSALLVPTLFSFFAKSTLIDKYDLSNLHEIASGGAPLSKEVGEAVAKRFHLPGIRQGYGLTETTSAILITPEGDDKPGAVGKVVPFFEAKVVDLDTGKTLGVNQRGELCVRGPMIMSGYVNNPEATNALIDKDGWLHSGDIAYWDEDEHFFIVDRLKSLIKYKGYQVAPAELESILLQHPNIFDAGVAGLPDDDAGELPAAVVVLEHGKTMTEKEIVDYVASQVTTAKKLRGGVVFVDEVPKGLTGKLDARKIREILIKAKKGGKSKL

[6] = molecular target: Glyceraldehyde-3-phosphate dehydrogenase (Homo sapiens, UniProt P04406)
Chain of Glyceraldehyde-3-phosphate dehydrogenase (P04406 whole entry): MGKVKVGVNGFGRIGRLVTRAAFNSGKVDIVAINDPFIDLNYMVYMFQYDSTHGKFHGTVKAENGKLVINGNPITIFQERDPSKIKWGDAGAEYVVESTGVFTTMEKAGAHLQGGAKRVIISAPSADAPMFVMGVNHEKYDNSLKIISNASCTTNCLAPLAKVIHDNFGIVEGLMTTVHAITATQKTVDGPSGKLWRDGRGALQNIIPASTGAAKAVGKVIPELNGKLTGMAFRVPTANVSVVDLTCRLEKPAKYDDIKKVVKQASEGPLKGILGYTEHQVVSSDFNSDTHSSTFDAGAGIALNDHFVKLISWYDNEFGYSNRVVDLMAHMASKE

[7] = molecular target: T3, Heat shock factor protein 1 (Mus musculus, UniProt P38532); assay: inhibition of MG132-induced HSE-luciferase signal, confirmation, cell-based, NIH3T3, luminescence, dose retest (AID 2382); format: functional;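 note: NIH3T3 fibroblasts with HSF1-driven luciferase reporter stressed by proteasome inhibitor MG132; luminescence from HSF1-driven luciferase expression after 8 hours of MG132 stress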
T3 sequence (P38532 whole entry): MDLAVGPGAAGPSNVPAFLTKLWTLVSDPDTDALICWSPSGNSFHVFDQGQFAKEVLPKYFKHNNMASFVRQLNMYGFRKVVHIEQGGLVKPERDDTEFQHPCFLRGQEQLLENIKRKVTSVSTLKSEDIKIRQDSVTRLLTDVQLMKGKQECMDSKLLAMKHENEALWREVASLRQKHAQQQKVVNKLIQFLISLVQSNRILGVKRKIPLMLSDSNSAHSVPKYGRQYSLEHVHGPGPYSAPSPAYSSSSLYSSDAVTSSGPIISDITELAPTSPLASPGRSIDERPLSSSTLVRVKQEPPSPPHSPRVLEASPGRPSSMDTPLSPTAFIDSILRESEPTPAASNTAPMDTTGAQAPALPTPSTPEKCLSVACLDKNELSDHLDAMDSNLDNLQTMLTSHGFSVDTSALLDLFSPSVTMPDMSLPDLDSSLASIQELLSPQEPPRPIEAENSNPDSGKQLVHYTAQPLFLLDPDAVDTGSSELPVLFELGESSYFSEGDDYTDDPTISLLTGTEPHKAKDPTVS

HT-1080 = assay: cytotoxicity in HT1080 fibrosarcoma cells, cell-based, fluorescence readout (AID 620); format: functional; settings: Homo sapiens
[8] = cytotoxicity in HEK-293T cells, dose response, cytotoxicity control for BCR NF-kB inhibitor project, luminescence, B-cell screen hits (AID 489021); format: functional, cell-based;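 note: HEK-293T cells carrying an NF-kB luciferase reporter; cells exposed to compound for about 14 hours before viability readout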

Structure (SMILES): CCC(=O)n1nc(-c2cccnc2)nc1NCc1ccccc1
- IC50 (Prothrombin): 0.0029 µM (active)

Structure (SMILES): N#Cc1c(NC(=O)C2CC(Cl)=CCC2C(=O)O)sc2c1CCCC2 (centres undefined)
- IC50 (Leucine aminopeptidase): < 1 µM (active)
- IC50 (Aspartyl aminopeptidase): > 73.5 µM (not active)
- IC50 (Procathepsin L): > 59.6 µM (not active)

Structure (SMILES): CCCCN1C(=O)NC(=O)C2(Cc3c(nc4ccccn4c3=O)N3CCc4ccccc4C32)C1=O (centres undefined)
- IC50 (Prothrombin): 5.42 µM (active)

Structure (SMILES): c1ccc2c(CCNc3[nH]cnc4ncnc3-4)c[nH]c2c1
- EC50 (BJ [1]): 24.4 µM (active)
- EC50 (BJ [2]): 53.2 µM (active)
- EC50 (BJ [3]): > 75 µM (not active)
- EC50 [4]: 30.5 µM (active)

Structure (SMILES): O=C(O)CCSc1nc2ccccc2s1
- EC50 [5]: > 100 µM (not active)
- IC50 [6]: > 100 µM (not active)
- EC50 [7]: 6.83 µM (active)
- EC50 (HT-1080): > 50 µM (not active)
- IC50 [8]: > 80 µM (inactive)

Source: ChEMBL document CHEMBL1201862, “PubChem BioAssay data set” (2004)
